Source: article PMC4684281, “Antitumor Effects and Mechanism of Novel Emodin Rhamnoside Derivatives against Human Cancer Cells In Vitro” (PLoS ONE, 2015)

Test system: Caspase-3 gene expression of HepG2 cells
Test: RT-qPCR gene expression, Caspase-3
Format: cell-based, Human
Details: 48 hours, control 1.022±0.258
Experimental: HepG2 cells were inoculated in 6-well culture plates at a density of 3×10^5 cells/well, and allowed to attach at 37°C for 24 hours. Then cells were treated with specific concentrations of EM-d-Rha and incubated in a humidified incubator supplied with 5% CO2 at 37°C for 48 hours. Medium were changed once every 24 hours. Afterwards, mRNA was extracted from every group using E.Z.N.A.^TM Total RNA Kit II according to the manufacturer’s instructions. The extracted mRNA was dissolved in 20 μL ddH2O (Qiagen) containing diethyl pyrocarbonate (DEPC). The concentration of mRNA was quantified with a NanoDrop ND-100 device (Thermo Fisher Scientific). cDNA was synthesized using 3μg of the extracted mRNA from each sample with PCR system (BIO-RAD,USA). The cDNA synthesis reaction was prepared according to the manufacturer’s instructions by mixing 3μg mRNA, 4.0μL 5× MMLV buffer, 3 μL oligodT18, 0.5μL 10 mM dNTP solution, 0.8μL RNase inhibitor, 3.7μL MMLV Rtase, and 6.0μL DEPC ddH2O in PCR tubes. The reaction condition was 5min at 70°C, 60 min at 42°C and 10min at 4°C. The products were used for subsequent RT-qPCR analysis. The level of mRNA expression was measured by RT-qPCR using a CFX96^TM C1000 Real-Time PCR System (BIO-RAD, USA).The primers were designed using idt.dna software system (http //www.idtdna.com). The specific primers were: Cyto C: 5′-[…]-3′ (forward), 5′- […] -3′ (reverse); Caspase 3: 5′- CCTACAGCCCATTTC TCCATAC-3′ (forward), 5′-[…]-′ (reverse); β-actin: 5′-[…]-3′ (forward), 5′-[…]-3′ (reverse). The product sizes of Cyto C, Caspase 3 and β-actin were 91bp, 125bp and 107bp, respectively. […]
Master Mix (Promega), 0.3μL of each primer (10μM), and 1.0 μL cDNA template. […] Each sample was analyzed in quadruplicate and mean was used for further analysis. The mRNA expression levels of each sample were quantified by measuring the threshold cycle (CT) values of genes. The relative values of the target gene expression were calculated according to CT values of the target genes and the reference gene (β-actin) by applying Livak and Schmittgen method. […]

Compound: CC(=O)O[C@@H]1[C@@H](O[C@@H]2O[C@@H](C)[C@H](O)[C@@H](OC(C)=O)[C@H]2OC(C)=O)[C@H](C)O[C@@H](Oc2cc(O)c3c(c2)C(=O)c2cc(C)cc(O)c2C3=O)[C@@H]1OC(C)=O [S-8, 3-(2”,3”-Di-O-acetyl-α-L-rhamnopyranosyl-(1→4)-2’,3’-di-O-acetyl-α-L-rhamnopyranosyl)-emodin]
- Caspase-3 mRNA expression level relative to controls (HepG2, 0.70μM): 0.949±0.259 fold
- Caspase-3 mRNA expression level relative to controls (HepG2, 1.40μM): 0.900±0.190 fold
- Caspase-3 mRNA expression level relative to controls (HepG2, 5.60μM): 4.413±3.730 fold
